The term ED50 denotes the midpoint of the dose-response relation. Higher therefore signals weaker potency.

Each structure is given as a SMILES string.

From patent publication US4203990A, “Anti-diarrheal 2-substituted quinuclidines” (G. D. Searle & Co., priority 1979, dated 1980) come the findings set out here.

For assay [1], the system named is gastrointestinal propulsive motility. Briefly: Mouse Cecal Test (charcoal in cecum, inhibition of gastrointestinal propulsive motility). The settings on record: oral/IG, test compound 30 min before charcoal, cecum examined 3.5 h after charcoal, logistic method of Berkson. In kind it is in vivo, male Charles River mice. An excerpt: The present compounds are potent anti-diarrheal agents as evidenced by their ability to inhibit gastrointestinal propulsive motility as set forth in the following tests:
The method used for this assay is a modification of the techniques previously described by Macht and Barba-Gose, J. Amer. Pharm. Ass., 20, 558 (1931), and Janssen and Jageneau, J. Pharm. Pharmacol., 9, 381 (1957). Details are as follows:
A group of six, male Charles River mice weighing 20-25 g. which have been previously fasted for 24 hours are pretreated with the test compounds administered orally as a solution in water or suspended in 0.5% methyl cellulose. A constant volume of 10 ml./kg. is employed. Thirty minutes following administration of the test compounds, the animals are given a single oral dose of charcoal which consists of 0.2 ml. per mouse of 10% charcoal suspended in 1.0% methyl cellulose. Three and a half hours after charcoal administration, the animals are sacrificed and the cecum examined for the absence or presence of charcoal on an all-or-none basis.
The median effective dose (ED50) is then calculated for each compound using the logistic method of Berkson (1953).

For assay [2], the system named is castor oil-induced diarrhea. The assay is described as follows: Castor Oil-Induced Diarrhea in the Rat. In kind it is in vivo, Charles River male rats. As to conditions: po, intragastric, 1 h before castor oil (1.0 ml per rat), at 2 hours past castor oil, method of Berkson. Here is the method: Adult Charles River male rats are fasted in community cages for 24 hours prior to the test, with free access to water. The test compound is then administered intragastrically (suspended on 0.5% methyl cellulose) one hour prior to the intragastric administration of a dose of 1.0 ml. castor oil per rat. The rats are then observed for the presence or absence of diarrhea at hourly intervals for up to 8 hours past the castor oil administration. Using the method of Berkson (1953), the median effective dose (ED50) values are calculated at each hourly interval for the test compound.
The median effective dose at 2 hours past the castor oil administration for the following representative compound of the present invention in the castor oil-induced diarrhea in the Rat test is: […]

On to `Cl.c1ccc(C(CC2CC3CCN2CC3)(c2ccccc2)c2ccccc2)cc1` (stereo not shown) [2-(2,2,2-triphenylethyl)-1-azabicyclo[2.2.2] octane hydrochloride], for which the ED50 in assay [1] stood at 0.9 ± 0.2 mg/kg; in assay [2], 0.2 ± 0.05 mg/kg.
Take `Cl.c1ccc(C(CC2CC3CCN2CC3)(c2ccccc2)c2ccccn2)cc1` (stereo not shown) [2-[2,2-diphenyl-2-(2-pyridyl)ethyl]-1-azabicyclo[2.2.2]octane hydrochloride]: the ED50 in assay [1] was 18.1 ± 10.3 mg/kg.
Same read-out and setting: to `Cc1nnc(C(CC2CC3CCN2CC3)(c2ccccc2)c2ccccc2)o1.Cl` (stereo not shown) [2-[2-(5-methyl-1,3,4-oxadiazol-2-yl)-2,2-diphenylethyl]-1-azabicyclo[2.2.2]octane hydrochloride] belongs 4.4 ± 1.3 mg/kg.
